Results on 31 compounds are retold here after patent US20250101003A1, “SPIROCYCLIC CAV2.3 ANTAGONISTS” (LARIO THERAPEUTICS LIMITED, priority 2021, published 2025).

The target of the test is Cav2.3 (Homo sapiens, UniProt Q15878). Description: Human Cav2.3 channel calcium-influx assay. The test is classed as cell-based. The settings on record: HEK-293 T-Rex/Kir2.1/Cav2.3e-β4-α2δ1 cells, Fluo8 fluorescence, without pluronic acid; read-out: Cav2.3 (pIC50) (converted). As to the method:
HEK-293 T-Rex cells were transfected with pcDNA3.1-Kir2.1 to generate a stable cell line. After antibiotic selection, the obtained stable pools were analysed using FLIPR^TETRA (membrane potential assay), and a limiting dilution was performed and a HEK-293 T-Rex/Kir2.1 clone was selected. The clone was transfected with pcDNA3.1-Cav2.3e and pBud-Cav-β4-α2δ1 to generate a stable cell line where the Cav2.3e expression is inducible. After antibiotic selection, functional clone pool analysis and two successive limiting dilutions, the final clone underwent a qPCR analysis and a biophysical and pharmacological validation using patch-clamp.
A compound plate, containing 10 test compounds in eight-points dose response with n=4, was prepared. Test compounds dose response curves were prepared in automated fashion in 100% DMSO at CyBio Felix and starting from a stock solution in 100% DMSO; a defined volume was serially moved into destination wells pre-filled with the desired DMSO volume; stock solution concentration volumes were dependent on the final compounds concentrations to be tested and the final DMSO content used in the assay. For the assay test compounds dose response curves ranged from 30 μM and half log dilution with 0.3% final DMSO. In order to obtain the 8-points dose response curve all the concentrations were created by starting from a 10 mM DMSO stock solution and then moving 9.5 μL into a destination well pre-filled with 20.5 μL of 100% DMSO and repeating this step seven times. This initial step was done into 96 MTP plates, 10 compounds/plate. One 384 MTP was then reformatted to contain all the 10 compounds at 8 concentrations, quadruplicate data points. This so obtained 384 MTP compound plate served as source plate in a “mother to child” process with a CyBi®-Well dispenser in which 0.7 μL of compounds were moved into a destination plate pre-filled with 57.6 μL of Tyrode's buffer 0 mM K+, thus obtaining 4× concentrated compounds solution. In columns 1-2 and 23-24 the control wells were added. Both “source” compound plate and “destination” compound plate were barcoded and a relationship between the two plates was thus generated.
The day before the experiment, cells were detached by gentle wash with DPBS, followed by 5 min incubation at 37° C. with Trypsin solution. Detached cells were diluted with OptiMEM+Doxycycline at 0.2 μg/mL, counted and plated in Poly-D-Lysine coated black/clear bottom (15.000 c/well in 20 μl/well) by the use of a MATRIX WellMate dispenser. Plates were placed into a humidified incubator at 37° C. with 5% CO2 until the experimental day. 24 h after seeding 10 μL/well of 1.5× Fluo8 NW dye solution prepared in Tyrode's buffer 0 mM K^+ were added on top of the seeding medium. Cell plates were incubated for 40-60 min at RT in the dark. We then Injected off-line 10 μL/well of test compounds and controls 4× concentrated in Tyrode's Buffer 0 mM K+ with the CyBi®-Well instrument. Cell plates were incubated 3 minutes at RT. Finally, we injected 20 μL/well of 3× concentrated activator solution (K20-Na130-Ca2 buffer: 20 mM KCl, 130 mM NaCl, 2 mM CaCl2, 10 mM HEPES, 10 mM Glucose, final concentrations, prepared starting from “KO-Na150-Ca2” and “K150-Na0-Ca2” buffers) at FDSS7000EX instrument and read emitted fluorescence for 130 seconds.
Data analysis was performed with Genedata Screener® software and reported compounds activity as % effect in relation to the normalization standards. The Kinetic Response Value (KRV) is calculated as follows:
KRV=Maximal fluorescence recorded from second 5 to second 130 minus baseline fluorescence, computed as average from second 1 to second 2, of the kinetic trace. The KRV was normalized versus Neutral Controls and Inhibitor Controls in order to obtain the Activity[%] for each well. […] Therefore, the compound activity values were scaled (based on the two references) to a common range (two-point normalization). […]

Cav2.3, sequence (Q15878 1-747 limits assumed): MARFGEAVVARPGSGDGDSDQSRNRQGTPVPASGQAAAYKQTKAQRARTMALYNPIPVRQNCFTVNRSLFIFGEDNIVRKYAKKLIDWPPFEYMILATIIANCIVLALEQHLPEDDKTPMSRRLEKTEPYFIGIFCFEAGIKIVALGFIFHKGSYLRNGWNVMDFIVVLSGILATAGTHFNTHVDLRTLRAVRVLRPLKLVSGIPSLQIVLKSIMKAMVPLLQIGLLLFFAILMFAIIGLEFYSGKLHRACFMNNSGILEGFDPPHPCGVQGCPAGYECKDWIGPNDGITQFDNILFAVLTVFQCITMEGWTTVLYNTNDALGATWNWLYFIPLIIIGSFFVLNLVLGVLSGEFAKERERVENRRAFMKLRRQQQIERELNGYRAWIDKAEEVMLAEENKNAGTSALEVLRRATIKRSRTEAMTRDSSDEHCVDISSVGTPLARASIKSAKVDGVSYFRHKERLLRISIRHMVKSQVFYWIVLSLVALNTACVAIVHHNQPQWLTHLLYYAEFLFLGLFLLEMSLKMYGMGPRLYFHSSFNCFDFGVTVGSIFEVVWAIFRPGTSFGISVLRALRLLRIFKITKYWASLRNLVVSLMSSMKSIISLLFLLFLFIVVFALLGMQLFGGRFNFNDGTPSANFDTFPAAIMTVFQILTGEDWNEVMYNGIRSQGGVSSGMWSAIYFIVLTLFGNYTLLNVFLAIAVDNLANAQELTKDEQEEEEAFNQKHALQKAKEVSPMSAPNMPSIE
Cav2.3, sequence (Q15878 1126-2313 limits assumed): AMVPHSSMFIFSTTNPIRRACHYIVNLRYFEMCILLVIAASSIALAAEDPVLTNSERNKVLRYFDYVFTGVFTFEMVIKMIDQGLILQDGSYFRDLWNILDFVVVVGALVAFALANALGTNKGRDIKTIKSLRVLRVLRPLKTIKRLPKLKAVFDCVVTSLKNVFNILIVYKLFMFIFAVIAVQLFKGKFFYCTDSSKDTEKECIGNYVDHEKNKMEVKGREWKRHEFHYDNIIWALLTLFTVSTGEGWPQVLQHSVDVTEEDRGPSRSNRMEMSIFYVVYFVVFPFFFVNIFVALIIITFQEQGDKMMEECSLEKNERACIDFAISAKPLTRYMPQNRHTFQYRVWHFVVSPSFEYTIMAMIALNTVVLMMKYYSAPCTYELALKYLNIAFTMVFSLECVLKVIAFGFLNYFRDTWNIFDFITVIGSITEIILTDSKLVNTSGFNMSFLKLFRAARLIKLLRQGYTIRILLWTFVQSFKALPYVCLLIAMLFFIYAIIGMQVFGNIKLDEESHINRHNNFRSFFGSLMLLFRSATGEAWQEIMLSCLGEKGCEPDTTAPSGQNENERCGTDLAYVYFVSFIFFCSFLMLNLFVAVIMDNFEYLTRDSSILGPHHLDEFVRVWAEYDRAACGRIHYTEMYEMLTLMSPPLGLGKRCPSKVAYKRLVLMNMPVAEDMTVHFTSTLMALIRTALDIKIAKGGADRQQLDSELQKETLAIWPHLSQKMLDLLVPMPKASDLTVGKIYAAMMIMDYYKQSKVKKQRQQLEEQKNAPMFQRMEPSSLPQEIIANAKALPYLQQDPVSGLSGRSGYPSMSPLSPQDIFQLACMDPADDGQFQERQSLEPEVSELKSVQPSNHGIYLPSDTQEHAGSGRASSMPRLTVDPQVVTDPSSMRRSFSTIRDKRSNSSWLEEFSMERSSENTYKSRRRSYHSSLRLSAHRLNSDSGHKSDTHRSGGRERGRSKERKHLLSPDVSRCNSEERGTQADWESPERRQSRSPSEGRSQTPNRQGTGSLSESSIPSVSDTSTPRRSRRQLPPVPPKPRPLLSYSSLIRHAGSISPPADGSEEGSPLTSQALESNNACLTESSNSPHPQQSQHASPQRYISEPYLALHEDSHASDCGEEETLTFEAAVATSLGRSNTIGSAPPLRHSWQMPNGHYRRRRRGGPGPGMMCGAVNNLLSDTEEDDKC

As for `CC(=O)N1CCc2ccc(S(=O)(=O)N3CC4(CCC4)CC3C)cc2C1` (stereo not shown) [Example 94, 1-(7-((7-Methyl-6-azaspiro[3.4]octan-6-yl)sulfonyl)-3,4-dihydroisoquinolin-2(1H)-yl)ethan-1-one], the IC50 was 2 µM. `CCC1CC2(CCC2)CN1S(=O)(=O)c1ccc2c(c1)S(=O)(=O)CC2` (stereo not shown) [Example 61, 6-((7-Ethyl-6-azaspiro[3.4]octan-6-yl)sulfonyl)-2,3-dihydrobenzo[b]thiophene 1,1-dioxide]: the IC50 was 1.78 µM. With `CC1CC2(CCC2)CN1S(=O)(=O)c1nccn1C` (stereo not shown) [Example 3, 7-Methyl-6-((1-methyl-1H-imidazol-2-yl)sulfonyl)-6-azaspiro[3.4]octane], the IC50 was 30.2 µM. `CCOc1ccc2nc(S(=O)(=O)N3CC4(CCC4)CC3C)sc2c1` (stereo not shown) [Example 96, 6-Ethoxy-2-((7-methyl-6-azaspiro[3.4]octan-6-yl)sulfonyl)benzo[d]thiazole]: the IC50 was 9.33 µM. As to `CC1CC2(CCC2)CN1S(=O)(=O)c1cncnc1` (stereo not shown) [Example 83, 7-Methyl-6-(pyrimidin-5-ylsulfonyl)-6-azaspiro[3.4]octane], the IC50 is 8.91 µM. As for `CC1CC2(CCC2)CN1S(=O)(=O)c1ccc(Cl)s1` (stereo not shown) [Example 108, 6-((5-Chlorothiophen-2-yl)sulfonyl)-7-methyl-6-azaspiro[3.4]octane], the IC50 is 11.5 µM. With `Cc1nc(C)c(S(=O)(=O)N2CC3(CCC3)CC2C)s1` (single isomer, unassigned) [Example 107, 2,4-dimethyl-5-((7-methyl-6-azaspiro[3.4]octan-6-yl)sulfonyl)thiazole], the IC50 was 6.76 µM. Consider `CC1CC2(CCC2)CN1S(=O)(=O)c1ccc2c(c1)CN(c1ccccc1)CC2` (stereo not shown) [Example 29, 7-((7-Methyl-6-azaspiro[3.4]octan-6-yl)sulfonyl)-2-phenyl-1,2,3,4-tetrahydroisoquinoline], for which the IC50 was 4.79 µM. In the case of `CC1CC2(CCC2)CN1S(=O)(=O)c1ccc2c(c1)OCCO2` (single isomer, unassigned) [Example 7, 6-((2,3-dihydrobenzo[b][1,4]dioxin-6-yl)sulfonyl)-7-methyl-6-azaspiro[3.4]octane], the IC50 was 2.19 µM. On to `CC1CC2(CCC2)CN1S(=O)(=O)c1ccc(C#N)s1` (single isomer, unassigned) [Example 9, 5-((7-Methyl-6-azaspiro[3.4]octan-6-yl)sulfonyl)thiophene-2-carbonitrile], for which the IC50 was 7.94 µM. The result for `CCC1CC2(CCCC2)CN1S(=O)(=O)c1cccs1` (single isomer, unassigned) [Example 99, 3-ethyl-2-(thiophen-2-ylsulfonyl)-2-azaspiro[4.4]nonane] reads 1.91 µM. With `O=S(=O)(c1cccs1)N1CC2(CCCC2)CC1C1CCCCC1` (stereo not shown) [Example 75, 3-Cyclohexyl-2-(thiophen-2-ylsulfonyl)-2-azaspiro[4.4]nonane], the IC50 is 37.2 µM. `CC1CC2(CCC2)CN1S(=O)(=O)c1cccs1` (stereo not shown) [Example 102, 7-Methyl-6-(thiophen-2-ylsulfonyl)-6-azaspiro[3.4]octane]: the IC50 was 2.69 µM. Turning to `CC1CC2(CCC2)CN1S(=O)(=O)c1cnccn1` (stereo not shown) [Example 39, 7-methyl-6-(pyrazin-2-ylsulfonyl)-6-azaspiro[3.4]octane], the IC50 is 10.7 µM. For the compound `CC1CC2(CCC2)CN1S(=O)(=O)c1ccc2c(c1)CN(C(=O)C(F)(F)F)CC2` (single isomer, unassigned) [Example 19, 2,2,2-Trifluoro-1-(7-((7-methyl-6-azaspiro[3.4]octan-6-yl)sulfonyl)-3,4-dihydroisoquinolin-2(1H)-yl)ethan-1-one], the IC50 is 1.78 µM. As for `Cc1nc(C)c(S(=O)(=O)N2CC3(CCC3)CC2C)s1` (single isomer, unassigned) [Example 106, 2,4-Dimethyl-5-((7-methyl-6-azaspiro[3.4]octan-6-yl)sulfonyl)thiazole], the IC50 was 2.19 µM.

For `CCc1nc2cc(S(=O)(=O)N3CC4(CCC4)CC3CC)ccc2o1` (stereo not shown) [Example 51, 2-Ethyl-5-((7-ethyl-6-azaspiro[3.4]octan-6-yl)sulfonyl)benzo[d]oxazole], the IC50 was 2.75 µM. On to `CCC1CC2(CCC2)CN1S(=O)(=O)c1ccnc(C)c1` (stereo not shown) [Example 92, 7-Ethyl-6-((2-methylpyridin-4-yl)sulfonyl)-6-azaspiro[3.4]octane], for which the IC50 was 2.45 µM. Regarding `CC1CC2(CCC2)CN1S(=O)(=O)c1ccncc1` (single isomer, unassigned) [Example 13, 7-methyl-6-(pyridin-4-ylsulfonyl)-6-azaspiro[3.4]octane], the IC50 was 1.66 µM. `Cc1nc(C)c(S(=O)(=O)N2CC3(CCC3)CC2C)s1` (stereo not shown) [Example 105, 2,4-Dimethyl-5-((7-methyl-6-azaspiro[3.4]octan-6-yl)sulfonyl)thiazole]: the IC50 was 4.57 µM. With `CC1CC2(CCC2)CN1S(=O)(=O)c1cc2oc(=O)[nH]c2cc1Cl` (stereo not shown) [Example 56, 5-Chloro-6-((7-methyl-6-azaspiro[3.4]octan-6-yl)sulfonyl)benzo[d]oxazol-2(3H)-one] the figure was 8.32 µM; with `CCOC(=O)N1CCc2ccc(S(=O)(=O)N3CC4(CCC4)CC3C)cc2C1` (single isomer, unassigned) [Example 24, Ethyl 7-((7-methyl-6-azaspiro[3.4]octan-6-yl)sulfonyl)-3,4-dihydroisoquinoline-2(1H)-carboxylate], 1.62 µM; with `CC1CC2(CCC2)CN1S(=O)(=O)Cc1ccccc1` (stereo not shown) [Example 2, 6-(Benzylsulfonyl)-7-methyl-6-azaspiro[3.4]octane], 4.27 µM. As for `CC1CC2(CCC2)CN1S(=O)(=O)c1ccc2ccoc2c1` (single isomer, unassigned) [Example 17, 6-(benzofuran-6-ylsulfonyl)-7-methyl-6-azaspiro[3.4]octane], the IC50 was 1.32 µM. The result for `CC1CC2(CCC2)CN1S(=O)(=O)c1ccco1` (single isomer, unassigned) [Example 37, 6-(Furan-2-ylsulfonyl)-7-methyl-6-azaspiro[3.4]octane] reads 7.94 µM; that for `CC(C)Oc1cc(S(=O)(=O)N2CC3(CCC3)CC2C)ccn1` (stereo not shown) [Example 84, 6-((2-Isopropoxypyridin-4-yl)sulfonyl)-7-methyl-6-azaspiro[3.4]octane], 4.47 µM; that for `CC1CC2(CCC2)CN1S(=O)(=O)c1ccncc1` (stereo not shown) [Example 11, 7-Methyl-6-(pyridin-4-ylsulfonyl)-6-azaspiro[3.4]octane], 3.24 µM. Turning to `CC1CC2(CCC2)CN1S(=O)(=O)c1ccccc1` (single isomer, unassigned) [Example 46, 7-Methyl-6-(phenylsulfonyl)-6-azaspiro[3.4]octane], the IC50 was 7.76 µM. Take `CCC1CC2(CCCC2)CN1S(=O)(=O)c1ccc2c(c1)CN(C(=O)C(F)(F)F)CC2` (stereo not shown) [Example 101, 1-(7-((3-Ethyl-2-azaspiro[4.4]nonan-2-yl)sulfonyl)-3,4-dihydroisoquinolin-2(1H)-yl)-2,2,2-trifluoroethan-1-one]: the IC50 was 2.45 µM. The result for `CC1CC2(CCC2)CN1S(=O)(=O)c1ccc2oncc2c1` (stereo not shown) [Example 68, 5-((7-Methyl-6-azaspiro[3.4]octan-6-yl)sulfonyl)benzo[d]isoxazole] reads 39.8 µM; that for `CC1CC2(CCC2)CN1S(=O)(=O)c1cc2oc(=O)[nH]c2cc1Cl` (single isomer, unassigned) [Example 58, 5-chloro-6-((7-methyl-6-azaspiro[3.4]octan-6-yl)sulfonyl)benzo[d]oxazol-2(3H)-one], 11.5 µM.
